Residues, ends and D or L forms follow the SMILES beside them.
Key:
[1] = molecular target: T1, human GLP-1-R (Homo sapiens, UniProt P43220); assay: GLP-1 receptor efficacy assay (cAMP generation in HEK293 cells); type: cell-based; settings: cAMP generation in HEK293 cells expressing GLP-1 receptor
T1 construct: The DNA encoding the Glucagon-R or the GLP-1-R was amplified by PCR using primers encoding terminal restriction sites for subcloning; expressed in transfected cells
Source text: (§1) The DNA encoding the Glucagon-R or the GLP-1-R was amplified by PCR using primers encoding terminal restriction sites for subcloning. The 5′-end primers additionally encoded a near Kozak consensus sequence to ensure efficient translation. The fidelity of the DNA encoding the Glucagon-R and the GLP-1-R was confirmed by DNA sequencing. The PCR products encoding the Glucagon-R or the GLP-1-R were subcloned into a mammalian expression vector containing a neomycin (G418) resistance marker. The mammalian expression vectors encoding the Glucagon-R or the GLP-1-R were transfected into HEK293 cells by a standard calcium phosphate transfection method. 48 hr after transfection cells were seeded for limited dilution cloning and selected with 1 mg/ml G418 in the culture medium. Three weeks later 12 surviving colonies of Glucagon-R and GLP-1-R expressing cells were picked, propagated and tested in the Glucagon-R and GLP-1-R efficacy assays as described below. One Glucagon-R expressing clone and one GLP-1-R expressing clone were chosen for compound profiling.
(§2) On the day of analysis, growth medium was removed and the cells washed once with 200 μl Tyrode buffer. Cells were incubated in 100 μl Tyrode buffer containing increasing concentrations of test peptides, 100 μM IBMX, and 6 mM glucose for up 15 min at 37° C. The reaction was stopped by addition of 25 μl 0.5 M HCl and incubated on ice for 60 min. The cAMP content was estimated using the FlashPlate® cAMP kit from Perkin-Elmer according to manufacturer instructions. EC50 and relative efficacies compared to reference compounds (glucagon and GLP-1) were estimated by computer aided curve fitting.

[2] = molecular target: T2, human Glucagon-R (Homo sapiens, UniProt P47871); assay: Glucagon receptor efficacy assay (cAMP generation in HEK293 cells); type: cell-based; settings: cAMP generation in HEK293 cells expressing Glucagon receptor
T2 construct: The DNA encoding the Glucagon-R or the GLP-1-R was amplified by PCR using primers encoding terminal restriction sites for subcloning; expressed in transfected cells
Source text: as §1, §2

T1 sequence (P43220 24-463): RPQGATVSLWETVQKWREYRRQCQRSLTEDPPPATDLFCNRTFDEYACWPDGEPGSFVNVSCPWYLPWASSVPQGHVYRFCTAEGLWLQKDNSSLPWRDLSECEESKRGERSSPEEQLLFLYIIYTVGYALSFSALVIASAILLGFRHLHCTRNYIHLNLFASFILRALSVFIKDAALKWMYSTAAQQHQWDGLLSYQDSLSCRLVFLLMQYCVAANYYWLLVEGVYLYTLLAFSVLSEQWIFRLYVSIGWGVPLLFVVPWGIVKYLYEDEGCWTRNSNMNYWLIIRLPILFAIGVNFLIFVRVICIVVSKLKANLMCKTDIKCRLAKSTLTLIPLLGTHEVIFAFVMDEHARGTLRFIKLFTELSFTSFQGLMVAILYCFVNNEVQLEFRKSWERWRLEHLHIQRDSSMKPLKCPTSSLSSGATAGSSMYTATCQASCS
T2 sequence (P47871 26-477): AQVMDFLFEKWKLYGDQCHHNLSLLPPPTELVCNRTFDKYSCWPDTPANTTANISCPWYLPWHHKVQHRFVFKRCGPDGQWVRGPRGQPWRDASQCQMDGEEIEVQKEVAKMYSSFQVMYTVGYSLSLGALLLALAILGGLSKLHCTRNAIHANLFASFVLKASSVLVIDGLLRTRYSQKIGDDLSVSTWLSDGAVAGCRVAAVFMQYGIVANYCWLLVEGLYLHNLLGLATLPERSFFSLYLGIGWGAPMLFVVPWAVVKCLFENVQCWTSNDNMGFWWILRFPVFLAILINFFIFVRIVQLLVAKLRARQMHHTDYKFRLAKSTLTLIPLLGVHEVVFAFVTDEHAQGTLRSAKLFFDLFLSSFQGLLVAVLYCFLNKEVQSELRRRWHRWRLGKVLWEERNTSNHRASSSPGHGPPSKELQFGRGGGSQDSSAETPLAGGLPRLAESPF

EC50 [1] [nM]	EC50 [2] [nM]	Structure (SMILES)
0.12		CCCCCCCCCCCCCCCC(=O)N[C@@H](CCC(=O)NCCCC[C@H](NC(=O)[C@H](CC(=O)O)NC(=O)[C@H](CC(C)C)NC(=O)[C@H](Cc1ccc(O)cc1)NC(=O)[C@H](CCCCN)NC(=O)[C@H](CO)NC(=O)[C@H](Cc1ccc(O)cc1)NC(=O)[C@H](CC(=O)O)NC(=O)[C@H](CO)NC(=O)[C@@H](NC(=O)[C@H](Cc1ccccc1)NC(=O)[C@@H](NC(=O)CNC(=O)[C@H](CCC(N)=O)NC(=O)C(C)(C)NC(=O)[C@@H](N)Cc1c[nH]cn1)[C@@H](C)O)[C@@H](C)O)C(=O)N[C@@H](CCCNC(=N)N)C(=O)N[C@@H](CCCNC(=N)N)C(=O)N[C@@H](C)C(=O)N[C@@H](CCCCN)C(=O)N[C@@H](CC(=O)O)C(=O)N[C@@H](Cc1ccccc1)C(=O)N[C@H](C(=O)N[C@@H](CCC(=O)O)C(=O)N[C@@H](Cc1c[nH]c2ccccc12)C(=O)N[C@@H](CC(C)C)C(=O)N[C@@H](CC(C)C)C(=O)N[C@@H](CO)C(=O)N[C@@H](C)C(N)=O)[C@@H](C)CC)C(=O)O [Compound 1] (HELM PEPTIDE1{H.[Aib].Q.G.T.F.T.S.D.Y.S.K.Y.L.D.K.R.R.A.K.D.F.I.E.W.L.L.S.A.[am]}|PEPTIDE2{[CCCCCCCCCCCCCCCC(=O)[*:2]].[gGlu]}$PEPTIDE1,PEPTIDE2,16:R3-2:R2$$$V2.0)
	0.06	CCCCCCCCCCCCCCCC(=O)N[C@@H](CCC(=O)NCCCC[C@H](NC(=O)[C@H](CCC(=O)O)NC(=O)[C@H](CC(=O)O)NC(=O)[C@H](CC(C)C)NC(=O)[C@H](Cc1ccc(O)cc1)NC(=O)[C@H](CCCNC(=N)N)NC(=O)[C@H](CO)NC(=O)[C@H](Cc1ccc(O)cc1)NC(=O)[C@H](CC(=O)O)NC(=O)[C@H](CO)NC(=O)[C@@H](NC(=O)[C@H](Cc1ccccc1)NC(=O)[C@@H](NC(=O)CNC(=O)[C@H](Cc1c[nH]cn1)NC(=O)[C@H](CO)NC(=O)[C@@H](N)Cc1c[nH]cn1)[C@@H](C)O)[C@@H](C)O)C(=O)N[C@@H](CCCNC(=N)N)C(=O)N[C@@H](C)C(=O)N[C@@H](CCCNC(=N)N)C(=O)N[C@@H](CC(=O)O)C(=O)N[C@@H](Cc1ccccc1)C(=O)N[C@H](C(=O)N[C@@H](CCC(=O)O)C(=O)N[C@@H](Cc1c[nH]c2ccccc12)C(=O)N[C@@H](CC(C)C)C(=O)N[C@@H](CC(C)C)C(=O)N[C@@H](CO)C(=O)N[C@@H](C)C(N)=O)[C@@H](C)CC)C(=O)O [Compound 10] (HELM PEPTIDE1{H.S.H.G.T.F.T.S.D.Y.S.R.Y.L.D.E.K.R.A.R.D.F.I.E.W.L.L.S.A.[am]}|PEPTIDE2{[CCCCCCCCCCCCCCCC(=O)[*:2]].[gGlu]}$PEPTIDE1,PEPTIDE2,17:R3-2:R2$$$V2.0)
0.06		CCCCCCCCCCCCCCCC(=O)N[C@@H](CCC(=O)NCCCC[C@H](NC(=O)[C@H](CCC(=O)O)NC(=O)[C@H](CC(=O)O)NC(=O)[C@H](CC(C)C)NC(=O)[C@H](Cc1ccc(O)cc1)NC(=O)[C@H](CCCNC(=N)N)NC(=O)[C@H](CO)NC(=O)[C@H](Cc1ccc(O)cc1)NC(=O)[C@H](CC(=O)O)NC(=O)[C@H](CO)NC(=O)[C@@H](NC(=O)[C@H](Cc1ccccc1)NC(=O)[C@@H](NC(=O)CNC(=O)[C@H](Cc1c[nH]cn1)NC(=O)C(C)(C)NC(=O)[C@@H](N)Cc1c[nH]cn1)[C@@H](C)O)[C@@H](C)O)C(=O)N[C@@H](CCCNC(=N)N)C(=O)N[C@@H](C)C(=O)N[C@@H](CCCNC(=N)N)C(=O)N[C@@H](CC(=O)O)C(=O)N[C@@H](Cc1ccccc1)C(=O)N[C@H](C(=O)N[C@@H](CCC(=O)O)C(=O)N[C@@H](Cc1c[nH]c2ccccc12)C(=O)N[C@@H](CC(C)C)C(=O)N[C@@H](CC(C)C)C(=O)N[C@@H](CO)C(=O)N[C@@H](C)C(N)=O)[C@@H](C)CC)C(=O)O [Compound 12] (HELM PEPTIDE1{H.[Aib].H.G.T.F.T.S.D.Y.S.R.Y.L.D.E.K.R.A.R.D.F.I.E.W.L.L.S.A.[am]}|PEPTIDE2{[CCCCCCCCCCCCCCCC(=O)[*:2]].[gGlu]}$PEPTIDE1,PEPTIDE2,17:R3-2:R2$$$V2.0)
0.12		CCCCCCCCCCCCCCCC(=O)N[C@@H](CCC(=O)NCCCC[C@H](NC(=O)[C@H](CCC(=O)O)NC(=O)[C@H](CC(=O)O)NC(=O)[C@H](CC(C)C)NC(=O)[C@H](Cc1ccc(O)cc1)NC(=O)[C@H](CCCNC(=N)N)NC(=O)[C@H](CO)NC(=O)[C@H](Cc1ccc(O)cc1)NC(=O)[C@H](CC(=O)O)NC(=O)[C@H](CO)NC(=O)[C@@H](NC(=O)[C@H](Cc1ccccc1)NC(=O)[C@@H](NC(=O)CNC(=O)[C@@H]1CCCN1C(=O)[C@@H](CO)NC(=O)[C@@H](N)Cc1c[nH]cn1)[C@@H](C)O)[C@@H](C)O)C(=O)N[C@@H](CCCNC(=N)N)C(=O)N[C@@H](C)C(=O)N[C@@H](CCCNC(=N)N)C(=O)N[C@@H](CC(=O)O)C(=O)N[C@@H](Cc1ccccc1)C(=O)N[C@H](C(=O)N[C@@H](CCC(=O)O)C(=O)N[C@@H](Cc1c[nH]c2ccccc12)C(=O)N[C@@H](CC(C)C)C(=O)N[C@@H](CC(C)C)C(=O)N[C@@H](CO)C(=O)N[C@@H](C)C(N)=O)[C@@H](C)CC)C(=O)O [Compound 14] (HELM PEPTIDE1{H.[dS].P.G.T.F.T.S.D.Y.S.R.Y.L.D.E.K.R.A.R.D.F.I.E.W.L.L.S.A.[am]}|PEPTIDE2{[CCCCCCCCCCCCCCCC(=O)[*:2]].[gGlu]}$PEPTIDE1,PEPTIDE2,17:R3-2:R2$$$V2.0)
0.06		CCCCCCCCCCCCCCCC(=O)N[C@@H](CCC(=O)NCCCC[C@H](NC(=O)[C@H](CCC(=O)O)NC(=O)[C@H](CC(=O)O)NC(=O)[C@H](CC(C)C)NC(=O)[C@H](Cc1ccc(O)cc1)NC(=O)[C@H](CCCNC(=N)N)NC(=O)[C@H](CO)NC(=O)[C@H](Cc1ccc(O)cc1)NC(=O)[C@H](CC(=O)O)NC(=O)[C@H](CO)NC(=O)[C@@H](NC(=O)[C@H](Cc1ccccc1)NC(=O)[C@@H](NC(=O)CNC(=O)[C@@H]1CCCN1C(=O)C(C)(C)NC(=O)[C@@H](N)Cc1c[nH]cn1)[C@@H](C)O)[C@@H](C)O)C(=O)N[C@@H](CCCNC(=N)N)C(=O)N[C@@H](C)C(=O)N[C@@H](CCCNC(=N)N)C(=O)N[C@@H](CC(=O)O)C(=O)N[C@@H](Cc1ccccc1)C(=O)N[C@H](C(=O)N[C@@H](CCC(=O)O)C(=O)N[C@@H](Cc1c[nH]c2ccccc12)C(=O)N[C@@H](CC(C)C)C(=O)N[C@@H](CC(C)C)C(=O)N[C@@H](CO)C(=O)N[C@@H](C)C(N)=O)[C@@H](C)CC)C(=O)O [Compound 15] (HELM PEPTIDE1{H.[Aib].P.G.T.F.T.S.D.Y.S.R.Y.L.D.E.K.R.A.R.D.F.I.E.W.L.L.S.A.[am]}|PEPTIDE2{[CCCCCCCCCCCCCCCC(=O)[*:2]].[gGlu]}$PEPTIDE1,PEPTIDE2,17:R3-2:R2$$$V2.0)
0.06		CCCCCCCCCCCCCCCC(=O)N[C@@H](CCC(=O)NCCCC[C@H](NC(=O)[C@H](CCC(=O)O)NC(=O)[C@H](CC(=O)O)NC(=O)[C@H](CC(C)C)NC(=O)[C@H](Cc1ccc(O)cc1)NC(=O)[C@H](CCCNC(=N)N)NC(=O)[C@H](CO)NC(=O)[C@H](Cc1ccc(O)cc1)NC(=O)[C@H](CC(=O)O)NC(=O)[C@H](CO)NC(=O)[C@@H](NC(=O)[C@H](Cc1ccccc1)NC(=O)[C@@H](NC(=O)CNC(=O)[C@H](CCC(N)=O)NC(=O)C(C)(C)NC(=O)[C@@H](N)Cc1c[nH]cn1)[C@@H](C)O)[C@@H](C)O)C(=O)N[C@@H](CCCNC(=N)N)C(=O)N[C@@H](C)C(=O)N[C@@H](CCCCN)C(=O)N[C@@H](CC(=O)O)C(=O)N[C@@H](Cc1ccccc1)C(=O)N[C@H](C(=O)N[C@@H](CCC(=O)O)C(=O)N[C@@H](Cc1c[nH]c2ccccc12)C(=O)N[C@@H](CC(C)C)C(=O)N[C@@H](CC(C)C)C(=O)N[C@@H](CO)C(=O)N[C@@H](C)C(N)=O)[C@@H](C)CC)C(=O)O [Compound 16] (HELM PEPTIDE1{H.[Aib].Q.G.T.F.T.S.D.Y.S.R.Y.L.D.E.K.R.A.K.D.F.I.E.W.L.L.S.A.[am]}|PEPTIDE2{[CCCCCCCCCCCCCCCC(=O)[*:2]].[gGlu]}$PEPTIDE1,PEPTIDE2,17:R3-2:R2$$$V2.0)
0.07		CCCCCCCCCCCCCCCC(=O)N[C@@H](CCC(=O)NCCCC[C@H](NC(=O)[C@H](CCC(=O)O)NC(=O)[C@H](CC(=O)O)NC(=O)[C@H](CC(C)C)NC(=O)[C@H](Cc1ccc(O)cc1)NC(=O)[C@H](CCCCN)NC(=O)[C@H](CO)NC(=O)[C@H](Cc1ccc(O)cc1)NC(=O)[C@H](CC(=O)O)NC(=O)[C@H](CO)NC(=O)[C@@H](NC(=O)[C@H](Cc1ccccc1)NC(=O)[C@@H](NC(=O)CNC(=O)[C@H](CCC(N)=O)NC(=O)[C@@H](CO)NC(=O)[C@@H](N)Cc1c[nH]cn1)[C@@H](C)O)[C@@H](C)O)C(=O)N[C@@H](CCCNC(=N)N)C(=O)N[C@@H](C)C(=O)N[C@@H](CCCCN)C(=O)N[C@@H](CC(=O)O)C(=O)N[C@@H](Cc1ccccc1)C(=O)N[C@H](C(=O)N[C@@H](CCC(=O)O)C(=O)N[C@@H](Cc1c[nH]c2ccccc12)C(=O)N[C@@H](CC(C)C)C(=O)N[C@@H](CC(C)C)C(=O)N[C@@H](CO)C(=O)N[C@@H](C)C(N)=O)[C@@H](C)CC)C(=O)O [Compound 17] (HELM PEPTIDE1{H.[dS].Q.G.T.F.T.S.D.Y.S.K.Y.L.D.E.K.R.A.K.D.F.I.E.W.L.L.S.A.[am]}|PEPTIDE2{[CCCCCCCCCCCCCCCC(=O)[*:2]].[gGlu]}$PEPTIDE1,PEPTIDE2,17:R3-2:R2$$$V2.0)
